Measured values as given in ChEMBL document CHEMBL1201862, “PubChem BioAssay data set” (2004).
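Test compounds were applied to cells in 96-well plates for 48 hours at 5 doses. Here, GI50 denotes the concentration required for 50% inhibition of growth.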 The source made the active and inactive calls. No stated cut-off is given here; in the data, active = GI50 up to about 1.1 µM and inactive = higher.

Experiments:
Experiment in all cases: DTP human tumour cell line panel, 48 h
[1] = tested on: PC-3
[2] = tested on: A498
[3] = tested on: SK-MEL-2
[4] = tested on: UO-31
[5] = tested on: K562
[6] = tested on: MCF7
[7] = tested on: SK-MEL-28
[8] = tested on: CAKI-1
[9] = tested on: OVCAR-4
[10] = tested on: SK-OV-3
[11] = tested on: SF-295
[12] = tested on: KM12
[13] = tested on: T47D
[14] = tested on: DU-145
[15] = tested on: NCI-H23
[16] = tested on: SNB-19
[17] = tested on: TK-10
[18] = tested on: U-251
[19] = tested on: Hs-578T
[20] = tested on: RPMI-8226

Compound	GI50 [1]	GI50 [2]	GI50 [3]	GI50 [4]	GI50 [5]	GI50 [6]	GI50 [7]	GI50 [8]	GI50 [9]	GI50 [10]	GI50 [11]	GI50 [12]	GI50 [13]	GI50 [14]	GI50 [15]	GI50 [16]	GI50 [17]	GI50 [18]	GI50 [19]	GI50 [20]
O=C(NC(=S)Nc1ccc(Br)cc1)c1ccc2c(c1)Sc1ccccc1S2	47.8 µM (inactive)	19.6 µM (inactive)	24.5 µM (inactive)	12.9 µM (inactive)	9.04 µM (inactive)	32.7 µM (inactive)	78.7 µM (inactive)	20.1 µM (inactive)	19.2 µM (inactive)	16.7 µM (inactive)	20.4 µM (inactive)	23.8 µM (inactive)	16.9 µM (inactive)	17.3 µM (inactive)	21.5 µM (inactive)	25.2 µM (inactive)	16.9 µM (inactive)	19 µM (inactive)	26.5 µM (inactive)	–
CCOP(=O)(OCC)C(F)(F)c1ccc(CC(NC(=O)OC(C)(C)C)C(=O)O)cc1 (centres undefined)	> 10 µM (inactive)	> 10 µM (inactive)	–	> 10 µM (inactive)	> 10 µM (inactive)	> 10 µM (inactive)	> 10 µM (inactive)	> 10 µM (inactive)	> 10 µM (inactive)	> 10 µM (inactive)	> 10 µM (inactive)	> 10 µM (inactive)	> 10 µM (inactive)	> 10 µM (inactive)	> 10 µM (inactive)	> 10 µM (inactive)	> 10 µM (inactive)	> 10 µM (inactive)	> 10 µM (inactive)	–
CC1(C)[C@H]2CC[C@](C)(C2)[C@]1(S)Cc1ccccn1	21.7 µM (inactive)	> 100 µM (inactive)	20.8 µM (inactive)	> 100 µM (inactive)	26.3 µM (inactive)	32.5 µM (inactive)	> 100 µM (inactive)	57.1 µM (inactive)	–	29.8 µM (inactive)	26.4 µM (inactive)	42.9 µM (inactive)	24.5 µM (inactive)	22.4 µM (inactive)	44.6 µM (inactive)	> 100 µM (inactive)	32.4 µM (inactive)	14.4 µM (inactive)	57.8 µM (inactive)	21.5 µM (inactive)
COc1cc(CNc2nc3ccccc3nc2-c2cccs2)cc(OC)c1OC	11.6 µM (inactive)	18.6 µM (inactive)	–	5.09 µM (inactive)	17.6 µM (inactive)	21.7 µM (inactive)	32.3 µM (inactive)	11.2 µM (inactive)	2.84 µM (inactive)	29.8 µM (inactive)	33.5 µM (inactive)	31.4 µM (inactive)	7.48 µM (inactive)	44.4 µM (inactive)	14.5 µM (inactive)	–	33.8 µM (inactive)	27.6 µM (inactive)	12.6 µM (inactive)	10.5 µM (inactive)
CC(C)NC(=O)OCCN=C1c2ccccc2CCc2ccccc21	20.5 µM (inactive)	–	16.4 µM (inactive)	23.1 µM (inactive)	21.5 µM (inactive)	22.6 µM (inactive)	19.7 µM (inactive)	24.7 µM (inactive)	12.2 µM (inactive)	24.8 µM (inactive)	14.7 µM (inactive)	37.2 µM (inactive)	21 µM (inactive)	25.5 µM (inactive)	54.3 µM (inactive)	20.9 µM (inactive)	26.1 µM (inactive)	23.8 µM (inactive)	24 µM (inactive)	18.2 µM (inactive)
CC(=O)Nc1ccc(OC2=CCN(C)CC2)cc1	> 100 µM (inactive)	–	> 100 µM (inactive)	> 100 µM (inactive)	> 100 µM (inactive)	> 100 µM (inactive)	> 100 µM (inactive)	> 100 µM (inactive)	> 100 µM (inactive)	> 100 µM (inactive)	> 100 µM (inactive)	> 100 µM (inactive)	> 100 µM (inactive)	> 100 µM (inactive)	> 100 µM (inactive)	> 100 µM (inactive)	> 100 µM (inactive)	> 100 µM (inactive)	> 100 µM (inactive)	> 100 µM (inactive)
CC(=O)N(CC(=O)C(=O)NNc1ccoc1)c1ccc(Cl)cc1	> 100 µM (inactive)	–	> 100 µM (inactive)	77.1 µM (inactive)	91.4 µM (inactive)	50.5 µM (inactive)	> 100 µM (inactive)	> 100 µM (inactive)	> 100 µM (inactive)	> 100 µM (inactive)	> 100 µM (inactive)	> 100 µM (inactive)	> 100 µM (inactive)	87.3 µM (inactive)	> 100 µM (inactive)	> 100 µM (inactive)	> 100 µM (inactive)	> 100 µM (inactive)	> 100 µM (inactive)	> 100 µM (inactive)
CN(C)Cc1cc(C(=O)/C=C/c2ccc(Br)cc2)cc(CN(C)C)c1O	1.67 µM (inactive)	14.3 µM (inactive)	–	1.82 µM (inactive)	2.43 µM (inactive)	6.61 µM (inactive)	12.2 µM (inactive)	2.28 µM (inactive)	7.46 µM (inactive)	–	5.58 µM (inactive)	2.16 µM (inactive)	15.9 µM (inactive)	12.6 µM (inactive)	15.7 µM (inactive)	12.8 µM (inactive)	13 µM (inactive)	12.9 µM (inactive)	18.7 µM (inactive)	4.74 µM (inactive)
O=C1CC(NCCCNC2CC(=O)c3c(Br)sc(Br)c32)c2c(Br)sc(Br)c21 (centres undefined)	1.57 µM (inactive)	–	1.87 µM (inactive)	1.42 µM (inactive)	0.879 µM (active)	0.369 µM (active)	3.15 µM (inactive)	2.03 µM (inactive)	2.93 µM (inactive)	4.1 µM (inactive)	3.78 µM (inactive)	1.49 µM (inactive)	2.11 µM (inactive)	1.66 µM (inactive)	1.83 µM (inactive)	2.45 µM (inactive)	2.06 µM (inactive)	1.82 µM (inactive)	4.58 µM (inactive)	0.118 µM (active)
COc1ccc(C(=O)/C=C/c2ccc(OCC#N)cc2)cc1OC	> 10 µM (inactive)	> 10 µM (inactive)	–	18 µM (inactive)	5.52 µM (inactive)	3.15 µM (inactive)	14.6 µM (inactive)	17.4 µM (inactive)	40.7 µM (inactive)	26.5 µM (inactive)	> 10 µM (inactive)	5.33 µM (inactive)	5.79 µM (inactive)	11.6 µM (inactive)	21.9 µM (inactive)	15.1 µM (inactive)	26.9 µM (inactive)	14.3 µM (inactive)	27.4 µM (inactive)	–
CCN(CCCl)c1cc(CN(C)C)cc(NC(=O)c2ccc(C(=O)Nc3cc(CN(C)C)cc(N(CC)CCCl)c3)cc2)c1	0.19 µM (active)	–	0.12 µM (active)	5.21 µM (inactive)	0.0733 µM (active)	0.017 µM (active)	0.159 µM (active)	0.272 µM (active)	0.5 µM (active)	0.226 µM (active)	0.182 µM (active)	0.234 µM (active)	0.134 µM (active)	0.504 µM (active)	0.0665 µM (active)	0.0873 µM (active)	0.861 µM (active)	0.0723 µM (active)	0.103 µM (active)	0.0885 µM (active)
CC(SC(=S)N(C)C)C(=O)Nc1nnc(-c2ccc(Cl)cc2)o1 (centres undefined)	35.9 µM (inactive)	42.4 µM (inactive)	30.8 µM (inactive)	20 µM (inactive)	14.3 µM (inactive)	26.7 µM (inactive)	53 µM (inactive)	–	44.7 µM (inactive)	> 100 µM (inactive)	–	–	44.8 µM (inactive)	59.8 µM (inactive)	54.2 µM (inactive)	35.3 µM (inactive)	80.2 µM (inactive)	31 µM (inactive)	> 100 µM (inactive)	22.6 µM (inactive)
CCCCc1c(OC)cc(O)c2c1C(=O)c1[nH]c(C(=O)O)c(O)c(=O)c1C2=O	6.12 µM (inactive)	–	1.69 µM (inactive)	1.73 µM (inactive)	> 100 µM (inactive)	21.1 µM (inactive)	4.11 µM (inactive)	13.2 µM (inactive)	18.3 µM (inactive)	4.35 µM (inactive)	22.8 µM (inactive)	29.4 µM (inactive)	9.4 µM (inactive)	63.1 µM (inactive)	2.81 µM (inactive)	2.25 µM (inactive)	13.9 µM (inactive)	2.95 µM (inactive)	1.82 µM (inactive)	> 100 µM (inactive)
Cc1ccnc(NS(=O)(=O)c2ccc(NC(=O)c3ccc4nc5ccccc5c(Nc5ccc(S(=O)(=O)Nc6nccc(C)n6)cc5)c4c3)cc2)n1	> 100 µM (inactive)	–	16 µM (inactive)	> 100 µM (inactive)	41.4 µM (inactive)	21.1 µM (inactive)	> 100 µM (inactive)	> 100 µM (inactive)	52.4 µM (inactive)	> 100 µM (inactive)	> 100 µM (inactive)	29 µM (inactive)	30.8 µM (inactive)	> 100 µM (inactive)	> 100 µM (inactive)	51.1 µM (inactive)	> 100 µM (inactive)	19.8 µM (inactive)	37.3 µM (inactive)	57.8 µM (inactive)
NC(=S)N1N=C2c3ccccc3CCC[C@H]2[C@@H]1c1ccccc1	1.1 µM (active)	3.1 µM (inactive)	0.236 µM (active)	1.9 µM (inactive)	0.284 µM (active)	0.472 µM (active)	10.5 µM (inactive)	–	5 µM (inactive)	0.427 µM (active)	1.03 µM (active)	0.693 µM (active)	10 µM (inactive)	1.54 µM (inactive)	1.84 µM (inactive)	1.37 µM (inactive)	10.3 µM (inactive)	2.33 µM (inactive)	0.552 µM (active)	0.824 µM (active)
